According to patent publication US5569591A, “Analytical or monitoring apparatus and method” (priority 1990, dated 1996):

What was measured:
[1] = molecular target: T1, H+-ATPase in the plasma membrane of Saccharomyces cerevisiae (Saccharomyces cerevisiae, UniProt P05030); format: cell-based; design: endogenous in cells; host or cells: intact S. cerevisiae cells in suspension
Description: The spectrometer 10 comprises two electrochemical cells 11, 12. Cell 11 is a test cell containing a sample of the biological system whose nonlinear dielectric properties are being studied. In this example the biological system comprises a system comprising a suspension of S. cerevisiae. The cell concentration was approximately 50 mg dry wt. ml^-1 in a medium of 20 mM KH2 PO4, 30 mM KCl, 1 mM MgCl2 pH 6.5. Tests were carried out within four hours of preparing the suspension. Cell 12 is a reference cell comprising the supernatant of the test suspension, the conductivity of which was adjusted with distilled water to compensate for the volume fraction of cells present in the sample, to be identical to that of the sample at the frequency of interest. The cells 11, 12 were connected to a sinusoidal oscillator 13, via a Data Translation Analog to Digital converter, to an 80386 microcomputer 14.
The sample cell suspension was pipetted into the electrode cell 11 (FIG. 1), the test waveform applied to the (outer) current electrodes, and the data logged from the (inner) voltage electrodes at a sampling frequency (which was typically at 25 times the frequency of the fundamental) and for a time specified by the operator. Time was specified in terms of a number of blocks, each block consisting of 512 samples. At the end of the time specified, the data were Fourier transformed as follows. […]

[2] = molecular target: vanadate-resistant ATPase of a mutant strain of yeast (Saccharomyces cerevisiae, UniProt P05030); conditions: mutant strain with vanadate-resistant ATPase
[3] = molecular target: T1, H+-ATPase in the plasma membrane of Saccharomyces cerevisiae; conditions: cells metabolising added D-glucose
Description: As described above, a 3rd harmonic was reproducibly observed with resting cell suspensions of S. cerevisiae. This could be ascribed to the presence of the H^+ -ATPase in this organism, and should be expected to reflect a situation in which the enzyme was at static head. An experiment to determine how this behaviour might be modified when the enzyme was driven away from static head and was able (or expected) to do work was carried out. Resting cells were taken, their (usual) non-linear dielectric spectrum recorded, and a metabolisable carbon source (D-glucose) added.

T1 sequence (P05030 whole entry): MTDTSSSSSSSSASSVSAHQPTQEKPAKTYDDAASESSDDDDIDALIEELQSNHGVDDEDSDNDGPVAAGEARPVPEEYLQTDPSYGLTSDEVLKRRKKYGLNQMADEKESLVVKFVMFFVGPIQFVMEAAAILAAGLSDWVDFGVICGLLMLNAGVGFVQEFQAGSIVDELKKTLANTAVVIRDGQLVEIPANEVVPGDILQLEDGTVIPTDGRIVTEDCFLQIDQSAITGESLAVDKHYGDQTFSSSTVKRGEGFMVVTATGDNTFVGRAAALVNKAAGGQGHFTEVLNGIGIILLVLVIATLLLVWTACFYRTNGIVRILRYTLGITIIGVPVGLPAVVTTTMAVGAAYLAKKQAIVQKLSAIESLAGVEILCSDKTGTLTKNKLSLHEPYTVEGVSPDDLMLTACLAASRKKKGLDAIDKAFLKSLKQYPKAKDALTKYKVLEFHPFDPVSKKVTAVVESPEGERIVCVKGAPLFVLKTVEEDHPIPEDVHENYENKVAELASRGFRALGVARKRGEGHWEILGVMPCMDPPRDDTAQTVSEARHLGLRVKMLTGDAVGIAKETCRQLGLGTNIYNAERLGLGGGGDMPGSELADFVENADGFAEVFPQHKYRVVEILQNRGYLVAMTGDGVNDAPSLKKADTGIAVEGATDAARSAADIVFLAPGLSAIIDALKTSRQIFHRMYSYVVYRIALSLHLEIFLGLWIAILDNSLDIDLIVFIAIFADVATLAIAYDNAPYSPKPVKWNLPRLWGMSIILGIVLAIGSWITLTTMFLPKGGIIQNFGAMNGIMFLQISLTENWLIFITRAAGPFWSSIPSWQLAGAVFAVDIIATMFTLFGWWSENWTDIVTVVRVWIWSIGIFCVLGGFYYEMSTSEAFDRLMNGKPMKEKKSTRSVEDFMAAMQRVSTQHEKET
Chain of vanadate-resistant ATPase of a mutant strain of yeast (P05030 whole entry, change not shown): as the sequence (P05030 whole entry) above

Row | Compound | generation of harmonics ([1]; 0.2 pmol/mg dry wt of cells) | generation of harmonics in the presence of vanadate [2] | even (2nd and 4th) harmonics in the presence of vanadate [3] | generation of the 3rd harmonic ([1]; 1 mM sodium metavanadate, FIG. 12)
1 | C(=NC(c1ccccc1)c1ccccc1)=NC(c1ccccc1)c1ccccc1 [dibenzhydryl carbodiimide] | completely abolished | – | – | –
2 | sodium metavanadate | – | vanadate resistant | vanadate-sensitive | essentially completely abolished
